Legend:
Assay type in all cases: in vivo
[1] = system: barnyardgrass (Echinochloa crus-galli); test: Test A pre-/postemergence: barnyardgrass
In short: (§1)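 Compounds, formulated with surfactant in non-phytotoxic solvent, were applied as a directed soil spray preemergence and as postemergence sprays to 2–10 cm, one- to two-leaf seedlings grown in loam soil blended with sand; visual injury, 0–100, assessed ~10 days post-treatment against untreated controls.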

[2] = system: crabgrass, large (large crabgrass, Digitaria sanguinalis); test: Test A pre-/postemergence: crabgrass, large
Text: (§2) Seeds of barnyardgrass (Echinochloa crus-galli), crabgrass, large (large crabgrass, Digitaria sanguinalis), foxtail, giant (giant foxtail, Setaria faberii), morningglory (Ipomoea spp.), pigweed (Amaranthus retroflexus), velvetleaf (Abutilon theophrasti), wheat (Triticum aestivum), and corn (Zea mays) were planted into a blend of loam soil and sand and treated preemergence with a directed soil spray using test chemicals formulated in a non-phytotoxic solvent mixture which included a surfactant. At the same time these species were also treated with postemergence applications of test chemicals formulated in the same manner.
(§3) Plants ranged in height from two to ten cm and were in the one- to two-leaf stage for the postemergence treatment. Treated plants and untreated controls were maintained in a greenhouse for approximately ten days, after which time all treated plants were compared to untreated controls and visually evaluated for injury. Plant response ratings, summarized in Table A, are based on a 0 to 100 scale where 0 is no effect and 100 is complete control. A dash (-) response means no test result.

[3] = system: foxtail, giant (giant foxtail, Setaria faberii); test: Test A pre-/postemergence: foxtail, giant; details: for Foxtail, Giant plant response rating: Postemergence; for Plant response rating, Foxtail, Giant: Preemergence
In short: as §1

[4] = system: morningglory (Ipomoea spp.); test: Test A pre-/postemergence: morningglory
In short: as §1

[5] = system: pigweed (Amaranthus retroflexus); test: Test A pre-/postemergence: pigweed
In short: as §1

[6] = system: velvetleaf (Abutilon theophrasti); test: Test A pre-/postemergence: velvetleaf
In short: as §1

[7] = system: wheat (Triticum aestivum); test: Test A pre-/postemergence: wheat
Text: as §2, §3

corn (Zea mays) = test: Test A pre-/postemergence: corn
Text: as §2, §3

rice (Oryza sativa) = test: Test C flooded paddy test: rice; details: scale 0 to 100 (0 no effect, 100 complete control)
Text: (§4) Plant species in the flooded paddy test consisted of rice (Oryza sativa), sedge, umbrella (small-flower umbrella sedge, Cyperus difformis), ducksalad (Heteranthera limosa) and barnyardgrass (Echinochloa crus-galli) grown to the 2-leaf stage for testing. At time of treatment, test pots were flooded to 3 cm above the soil surface, treated by application of test compounds directly to the paddy water, and then maintained at that water depth for the duration of the test.
(§5) Treated plants and controls were maintained in a greenhouse for 13 to 15 days, after which time all species were compared to controls and visually evaluated. Plant response ratings, summarized in Table C, are based on a scale of 0 to 100 where 0 is no effect and 100 is complete control. A dash (-) response means no test result.

[8] = system: sedge, umbrella (small-flower umbrella sedge, Cyperus difformis); test: Test C flooded paddy test: sedge, umbrella; details: scale 0 to 100 (0 no effect, 100 complete control)
Text: as §4, §5

[9] = system: ducksalad (Heteranthera limosa); test: Test C flooded paddy test: ducksalad; details: scale 0 to 100 (0 no effect, 100 complete control)
Text: as §4, §5

[10] = system: barnyardgrass (Echinochloa crus-galli); test: Test C flooded paddy test: barnyardgrass; details: scale 0 to 100 (0 no effect, 100 complete control)
Text: as §4, §5

[11] = Postemergence, 125 g ai/ha, 0 to 100 scale, 0 is no effect, 100 is complete control
[12] = Postemergence, 500 g ai/ha, visual rating on 0 to 100 scale (0 no effect, 100 complete control), approximately ten days
[13] = Preemergence, 125 g ai/ha, 0 to 100 scale (0 no effect, 100 complete control)
[14] = Preemergence, 500 g ai/ha, 0 to 100 scale, 0 is no effect, 100 is complete control
[15] = 125 g ai/ha, 0 to 100 scale, 0 is no effect, 100 is complete control
[16] = 500 g ai/ha, visual rating on 0 to 100 scale (0 no effect, 100 complete control), approximately ten days
[17] = 125 g ai/ha, 0 to 100 scale (0 no effect, 100 complete control)
[18] = 500 g ai/ha, 0 to 100 scale, 0 is no effect, 100 is complete control
[19] = Flood (flooded paddy test), 62 g ai/ha, visual rating after 13 to 15 days
[20] = Flood (flooded paddy test), 125 g ai/ha, visual rating after 13 to 15 days
[21] = Flood (flooded paddy test), 250 g ai/ha, visual rating after 13 to 15 days
[22] = Postemergence, 1000 g ai/ha, visual rating on 0 to 100 scale (0 no effect, 100 complete control), approximately ten days
[23] = Preemergence, 1000 g ai/ha, 0 to 100 scale, 0 is no effect, 100 is complete control

## Cc1nn(-c2ccc(C(F)(F)F)cn2)nc1Cn1cnc(C(F)(F)F)n1 [Compound 8]
[1]; [11]
  Barnyardgrass plant response rating: 10
[1]; [12]
  Barnyardgrass plant response rating: 80
[1]; [13]
  Plant response rating, Barnyardgrass: 20
[1]; [14]
  Plant response rating, Barnyardgrass: 80
[2]; [11]
  Crabgrass, Large plant response rating: 40
[2]; [12]
  Crabgrass, Large plant response rating: 80
[2]; [13]
  Plant response rating, Crabgrass, Large: 90
[2]; [14]
  Plant response rating, Crabgrass, Large: 100
[3]; [15]
  Foxtail, Giant plant response rating: 30
[3]; [16]
  Foxtail, Giant plant response rating: 80
[3]; [17]
  Plant response rating, Foxtail, Giant: 60
[3]; [18]
  Plant response rating, Foxtail, Giant: 90
[4]; [11]
  Morningglory plant response rating: 90
[4]; [12]
  Morningglory plant response rating: 90
[4]; [13]
  Plant response rating, Morningglory: 30
[4]; [14]
  Plant response rating, Morningglory: 90
[5]; [11]
  Pigweed plant response rating: 60
[5]; [12]
  Pigweed plant response rating: 100
[5]; [13]
  Plant response rating, Pigweed: 90
[5]; [14]
  Plant response rating, Pigweed: 100
[6]; [11]
  Velvetleaf plant response rating: 30
[6]; [12]
  Velvetleaf plant response rating: 80
[6]; [13]
  Plant response rating, Velvetleaf: 20
[6]; [14]
  Plant response rating, Velvetleaf: 60
[7]; [11]
  Wheat plant response rating: 0
[7]; [12]
  Wheat plant response rating: 20
[7]; [13]
  Plant response rating, Wheat: 0
[7]; [14]
  Plant response rating, Wheat: 10
Corn (Zea mays); [11]
  Corn plant response rating: 20
Corn (Zea mays); [12]
  Corn plant response rating: 40
Corn (Zea mays); [13]
  Plant response rating, Corn: 0
Corn (Zea mays); [14]
  Plant response rating, Corn: 0
Rice (Oryza sativa); [19]
  Plant response rating, Rice: 0
Rice (Oryza sativa); [20]
  Plant response rating, Rice: 0
Rice (Oryza sativa); [21]
  Plant response rating, Rice: 0
Rice (Oryza sativa); Flood, 31 g ai/ha
  Plant response rating, Rice: 0
[8]; [19]
  Plant response rating, Sedge, Umbrella: 0
[8]; [20]
  Plant response rating, Sedge, Umbrella: 0
[8]; [21]
  Plant response rating, Sedge, Umbrella: 75
[8]; Flood, 31 g ai/ha
  Plant response rating, Sedge, Umbrella: 0
[9]; [19]
  Plant response rating, Ducksalad: 0
[9]; [20]
  Plant response rating, Ducksalad: 0
[9]; [21]
  Plant response rating, Ducksalad: 45
[9]; Flood, 31 g ai/ha
  Plant response rating, Ducksalad: 0
[10]; [19]
  Plant response rating, Barnyardgrass: 0
[10]; [20]
  Plant response rating, Barnyardgrass: 0
[10]; [21]
  Plant response rating, Barnyardgrass: 0
[10]; Flood, 31 g ai/ha
  Plant response rating, Barnyardgrass: 0

## Cc1nn(-c2ccc(C(F)(F)F)cc2)nc1Cn1cc(C(F)(F)F)nc1Cl [Compound 9]
[1]; [11]
  Barnyardgrass plant response rating: 50
[1]; [12]
  Barnyardgrass plant response rating: 60
[1]; [13]
  Plant response rating, Barnyardgrass: 30
[1]; [14]
  Plant response rating, Barnyardgrass: 70
[2]; [11]
  Crabgrass, Large plant response rating: 60
[2]; [12]
  Crabgrass, Large plant response rating: 70
[2]; [13]
  Plant response rating, Crabgrass, Large: 90
[2]; [14]
  Plant response rating, Crabgrass, Large: 100
[3]; [15]
  Foxtail, Giant plant response rating: 50
[3]; [16]
  Foxtail, Giant plant response rating: 70
[3]; [17]
  Plant response rating, Foxtail, Giant: 80
[3]; [18]
  Plant response rating, Foxtail, Giant: 90
[4]; [11]
  Morningglory plant response rating: 70
[4]; [12]
  Morningglory plant response rating: 100
[4]; [13]
  Plant response rating, Morningglory: 50
[4]; [14]
  Plant response rating, Morningglory: 60
[5]; [11]
  Pigweed plant response rating: 90
[5]; [12]
  Pigweed plant response rating: 100
[5]; [13]
  Plant response rating, Pigweed: 90
[5]; [14]
  Plant response rating, Pigweed: 100
[6]; [11]
  Velvetleaf plant response rating: 60
[6]; [12]
  Velvetleaf plant response rating: 80
[6]; [13]
  Plant response rating, Velvetleaf: 30
[6]; [14]
  Plant response rating, Velvetleaf: 50
[7]; [11]
  Wheat plant response rating: 0
[7]; [12]
  Wheat plant response rating: 20
[7]; [13]
  Plant response rating, Wheat: 0
[7]; [14]
  Plant response rating, Wheat: 0
Corn (Zea mays); [11]
  Corn plant response rating: 20
Corn (Zea mays); [12]
  Corn plant response rating: 30
Corn (Zea mays); [13]
  Plant response rating, Corn: 0
Corn (Zea mays); [14]
  Plant response rating, Corn: 10
Rice (Oryza sativa); [19]
  Plant response rating, Rice: 0
Rice (Oryza sativa); [21]
  Plant response rating, Rice: 0
[8]; [19]
  Plant response rating, Sedge, Umbrella: 40
[8]; [21]
  Plant response rating, Sedge, Umbrella: 85
[9]; [19]
  Plant response rating, Ducksalad: 0
[9]; [21]
  Plant response rating, Ducksalad: 0
[10]; [19]
  Plant response rating, Barnyardgrass: 0
[10]; [21]
  Plant response rating, Barnyardgrass: 30

## CCc1nn(-c2ccc(F)cc2)nc1Cn1ccc(C(F)(F)C(F)(F)F)n1 [Compound 10]
[1]; [11]
  Barnyardgrass plant response rating: 20
[1]; [12]
  Barnyardgrass plant response rating: 50
[1]; [13]
  Plant response rating, Barnyardgrass: 0
[1]; [14]
  Plant response rating, Barnyardgrass: 10
[2]; [11]
  Crabgrass, Large plant response rating: 40
[2]; [12]
  Crabgrass, Large plant response rating: 60
[2]; [13]
  Plant response rating, Crabgrass, Large: 40
[2]; [14]
  Plant response rating, Crabgrass, Large: 90
[3]; [15]
  Foxtail, Giant plant response rating: 20
[3]; [16]
  Foxtail, Giant plant response rating: 50
[3]; [17]
  Plant response rating, Foxtail, Giant: 20
[3]; [18]
  Plant response rating, Foxtail, Giant: 80
[4]; [11]
  Morningglory plant response rating: 100
[4]; [12]
  Morningglory plant response rating: 100
[4]; [13]
  Plant response rating, Morningglory: 0
[4]; [14]
  Plant response rating, Morningglory: 10
[5]; [11]
  Pigweed plant response rating: 70
[5]; [12]
  Pigweed plant response rating: 100
[5]; [13]
  Plant response rating, Pigweed: 60
[5]; [14]
  Plant response rating, Pigweed: 80
[6]; [11]
  Velvetleaf plant response rating: 40
[6]; [12]
  Velvetleaf plant response rating: 50
[6]; [13]
  Plant response rating, Velvetleaf: 0
[6]; [14]
  Plant response rating, Velvetleaf: 20
[7]; [11]
  Wheat plant response rating: 0
[7]; [12]
  Wheat plant response rating: 10
[7]; [13]
  Plant response rating, Wheat: 0
[7]; [14]
  Plant response rating, Wheat: 0
Corn (Zea mays); [11]
  Corn plant response rating: 20
Corn (Zea mays); [12]
  Corn plant response rating: 20
Corn (Zea mays); [13]
  Plant response rating, Corn: 0
Corn (Zea mays); [14]
  Plant response rating, Corn: 0
Rice (Oryza sativa); [19]
  Plant response rating, Rice: 0
Rice (Oryza sativa); [21]
  Plant response rating, Rice: 0
[8]; [19]
  Plant response rating, Sedge, Umbrella: 0
[8]; [21]
  Plant response rating, Sedge, Umbrella: 0
[9]; [19]
  Plant response rating, Ducksalad: 0
[9]; [21]
  Plant response rating, Ducksalad: 0
[10]; [19]
  Plant response rating, Barnyardgrass: 0
[10]; [21]
  Plant response rating, Barnyardgrass: 0

## FC(F)(F)c1ccc(-n2nc(Br)c(Cc3cccc(C(F)(F)F)c3)n2)nc1 [Compound 105]
[1]; [22]
  Barnyardgrass plant response rating: 10
[1]; [23]
  Barnyardgrass plant response rating: 10
[2]; [22]
  Crabgrass, Large plant response rating: 50
[2]; [23]
  Crabgrass, Large plant response rating: 50
[4]; [22]
  Morningglory plant response rating: 90
[4]; [23]
  Morningglory plant response rating: 10
[5]; [22]
  Pigweed plant response rating: 100
[5]; [23]
  Pigweed plant response rating: 90
[6]; [22]
  Velvetleaf plant response rating: 40
[6]; [23]
  Velvetleaf plant response rating: 10
[7]; [22]
  Wheat plant response rating: 0
[7]; [23]
  Wheat plant response rating: 0
Corn (Zea mays); [22]
  Corn plant response rating: 10
Corn (Zea mays); [23]
  Corn plant response rating: 0
Rice (Oryza sativa); [20]
  Plant response rating, Rice: 0
Rice (Oryza sativa); [21]
  Plant response rating, Rice: 0
Rice (Oryza sativa); Flood, 31 g ai/ha
  Plant response rating, Rice: 0
Rice (Oryza sativa); Flood, 62 g ai/ha
  Plant response rating, Rice: 0
[8]; [20]
  Plant response rating, Sedge, Umbrella: 0
[8]; [21]
  Plant response rating, Sedge, Umbrella: 0
[8]; Flood, 31 g ai/ha
  Plant response rating, Sedge, Umbrella: 0
[8]; Flood, 62 g ai/ha
  Plant response rating, Sedge, Umbrella: 0
[9]; [20]
  Plant response rating, Ducksalad: 0
[9]; [21]
  Plant response rating, Ducksalad: 0
[9]; Flood, 31 g ai/ha
  Plant response rating, Ducksalad: 0
[9]; Flood, 62 g ai/ha
  Plant response rating, Ducksalad: 0
[10]; [20]
  Plant response rating, Barnyardgrass: 0
[10]; [21]
  Plant response rating, Barnyardgrass: 0
[10]; Flood, 31 g ai/ha
  Plant response rating, Barnyardgrass: 0
[10]; Flood, 62 g ai/ha
  Plant response rating, Barnyardgrass: 0
